Reference: publication PMC4363128 (Neuroscience, 2013)

Tests used:
[1] = test system: Y1 receptors; NK1R internalization in lamina I neurons; experiment: NK1R internalization evoked by dorsal root stimulation in spinal cord slices; assay type: cell-based, rat; settings: BIBO3304 100 nM with 100 nM [Leu^31,Pro^34]NPY
Y1 receptor = molecular target: T1, Y1 receptor (Mus musculus, UniProt Q04573); assay type: biochemical
T1 sequence (Q04573 1-382): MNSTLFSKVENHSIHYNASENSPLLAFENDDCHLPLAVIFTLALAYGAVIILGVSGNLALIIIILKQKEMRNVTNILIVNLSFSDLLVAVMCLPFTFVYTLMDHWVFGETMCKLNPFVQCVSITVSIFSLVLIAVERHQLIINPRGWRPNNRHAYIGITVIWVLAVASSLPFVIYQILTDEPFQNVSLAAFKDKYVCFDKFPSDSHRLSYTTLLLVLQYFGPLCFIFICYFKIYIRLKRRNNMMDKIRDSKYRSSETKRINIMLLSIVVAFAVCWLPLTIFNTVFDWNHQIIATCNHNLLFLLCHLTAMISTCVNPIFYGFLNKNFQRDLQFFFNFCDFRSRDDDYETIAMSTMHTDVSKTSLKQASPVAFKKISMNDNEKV

[2] = test system: NK1R internalization in dorsal horn lamina I neurons; assay type: in vivo, rat; settings: intrathecal NPY one hour before hind paw clamp
[3] = test system: NK1R internalization in dorsal horn lamina I neurons; experiment: NK1R internalization evoked by non-noxious stimulus; assay type: in vivo, rat; settings: intrathecal NPY, carrageenan-inflamed paw; printed 'by nearly 50%'

## NC(=O)NCc1ccc(CNC(=O)[C@@H](CCCN=C(N)N)NC(=O)C(c2ccccc2)c2ccccc2)cc1 [BIBO3304]
[1]
  effect on inhibition of NK1R internalization produced by Y1 agonist: completely reversed
Y1 receptor
  IC50: 7.85 nM

## Neuropeptide Y [NPY]
[2]
  inhibition of evoked NK1R internalization: 50%
[3]
  inhibition of brush-evoked NK1R internalization: ~50%
